ChEMBL document CHEMBL3621059, “Discovery of 4-Aryl-5,6,7,8-tetrahydroisoquinolines as Potent, Selective, and Orally Active Aldosterone Synthase (CYP11B2) Inhibitors: In Vivo Evaluation in Rodents and Cynomolgus Monkeys” (J Med Chem, 2015)
Values after ≈ are worked out from the molar mass of the structure shown. Active and inactive are the calls of the source. The rule behind the calls is not given here.

Tests used:
[1] = rat, microsomes
Description: Clearance in rat microsomes assessed per mg of protein

[2] = molecular target: T1, Cytochrome P450 11B2, mitochondrial (Homo sapiens, UniProt P19099)
T1 sequence (P19099 whole entry): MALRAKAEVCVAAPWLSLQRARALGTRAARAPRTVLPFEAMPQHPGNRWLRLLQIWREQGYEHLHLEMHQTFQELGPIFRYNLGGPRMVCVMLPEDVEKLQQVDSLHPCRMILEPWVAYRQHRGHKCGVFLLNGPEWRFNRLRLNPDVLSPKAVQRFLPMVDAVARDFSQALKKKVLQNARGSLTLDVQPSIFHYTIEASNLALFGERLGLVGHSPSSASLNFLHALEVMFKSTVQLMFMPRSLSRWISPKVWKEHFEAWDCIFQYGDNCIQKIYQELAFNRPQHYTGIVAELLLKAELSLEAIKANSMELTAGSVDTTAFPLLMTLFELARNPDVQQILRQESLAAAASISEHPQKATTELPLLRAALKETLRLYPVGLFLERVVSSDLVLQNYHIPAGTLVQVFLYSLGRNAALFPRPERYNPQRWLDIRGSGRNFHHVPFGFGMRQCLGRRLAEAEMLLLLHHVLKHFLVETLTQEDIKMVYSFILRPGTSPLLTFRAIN
Description: Inhibition of human CYP11B2 expressed in human renal leiomyoblastoma cells using 11-deoxycorticosterone as substrate assessed as formation of aldosterone after 16 hrs by HTRF assay

[3] = mouse, microsomes
Description: Clearance in mouse microsomes assessed per mg of protein

[4] = human, microsomes
Description: Clearance in human microsomes assessed per mg of protein

[5] = molecular target: T2, Cytochrome P450 11B2, mitochondrial (Rattus norvegicus, UniProt P30099); assay: Inhibition of rat CYP11B2 expressed in renal leiomyoblastoma cells at 500 nM relative to control; type: cell-based
T2 sequence (P30099 whole entry): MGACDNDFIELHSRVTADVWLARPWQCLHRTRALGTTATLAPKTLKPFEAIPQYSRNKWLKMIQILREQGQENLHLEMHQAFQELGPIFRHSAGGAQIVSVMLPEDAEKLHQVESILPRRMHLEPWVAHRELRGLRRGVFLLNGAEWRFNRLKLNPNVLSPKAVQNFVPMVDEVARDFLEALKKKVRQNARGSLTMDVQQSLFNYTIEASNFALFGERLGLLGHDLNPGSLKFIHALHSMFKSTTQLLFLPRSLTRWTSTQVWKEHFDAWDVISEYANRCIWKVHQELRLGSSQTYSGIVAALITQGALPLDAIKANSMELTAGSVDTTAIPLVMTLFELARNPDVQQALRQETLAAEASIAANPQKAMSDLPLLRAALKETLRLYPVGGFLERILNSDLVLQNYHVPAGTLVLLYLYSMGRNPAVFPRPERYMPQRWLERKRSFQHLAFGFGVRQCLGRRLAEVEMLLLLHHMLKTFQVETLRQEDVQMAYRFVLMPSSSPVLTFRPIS

[6] = organism: Rattus norvegicus; assay: Induction of improvement in renal histology in angiotension-2 ZSF1 rat infusion model; type: functional, organism-based
[7] = organism: Rattus norvegicus; assay: Reduction of aldosterone level in angiotension-2 ZSF1 rat infusion model; type: functional, organism-based
[8] = organism: Rattus norvegicus; assay: Induction of improvement in glomerular filtration rate in angiotension-2 ZSF1 rat infusion model; type: functional, organism-based
[9] = molecular target: Cytochrome P450 2D6 (Homo sapiens, UniProt P10635)
Sequence of Cytochrome P450 2D6 (P10635 whole entry): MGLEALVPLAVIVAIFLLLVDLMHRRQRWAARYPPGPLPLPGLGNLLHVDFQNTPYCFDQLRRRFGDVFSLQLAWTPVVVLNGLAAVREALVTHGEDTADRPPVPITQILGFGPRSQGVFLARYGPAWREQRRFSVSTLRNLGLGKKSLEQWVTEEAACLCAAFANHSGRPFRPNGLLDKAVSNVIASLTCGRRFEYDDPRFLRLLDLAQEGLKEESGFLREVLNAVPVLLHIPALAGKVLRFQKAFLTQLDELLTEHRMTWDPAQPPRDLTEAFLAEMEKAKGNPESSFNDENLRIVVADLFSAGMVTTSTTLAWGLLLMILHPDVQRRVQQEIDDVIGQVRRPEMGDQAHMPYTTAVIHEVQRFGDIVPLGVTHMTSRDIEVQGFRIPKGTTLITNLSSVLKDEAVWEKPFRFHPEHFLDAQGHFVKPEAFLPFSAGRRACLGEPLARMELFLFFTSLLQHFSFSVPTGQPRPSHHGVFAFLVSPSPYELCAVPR
Description: Inhibition of CYP2D6 (unknown origin)

[10] = physchem; details: 1-octanol/TAPSO buffer, pH 7.4
[11] = molecular target: Cytochrome P450 3A4 (Homo sapiens, UniProt P08684)
Sequence of Cytochrome P450 3A4 (P08684 whole entry): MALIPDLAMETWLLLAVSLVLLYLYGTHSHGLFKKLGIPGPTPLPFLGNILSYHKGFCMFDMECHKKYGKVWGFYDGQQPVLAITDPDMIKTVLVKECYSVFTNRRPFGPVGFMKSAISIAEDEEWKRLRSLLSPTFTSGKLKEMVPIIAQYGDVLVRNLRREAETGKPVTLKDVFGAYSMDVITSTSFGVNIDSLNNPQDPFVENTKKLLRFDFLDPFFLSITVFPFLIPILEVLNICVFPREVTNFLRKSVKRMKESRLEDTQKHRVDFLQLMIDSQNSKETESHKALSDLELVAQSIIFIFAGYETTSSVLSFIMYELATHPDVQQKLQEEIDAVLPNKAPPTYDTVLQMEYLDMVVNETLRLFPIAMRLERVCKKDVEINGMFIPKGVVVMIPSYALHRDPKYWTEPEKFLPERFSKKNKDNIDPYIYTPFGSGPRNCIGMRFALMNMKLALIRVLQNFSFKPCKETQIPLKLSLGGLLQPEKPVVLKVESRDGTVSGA
Description: Inhibition of CYP3A4 (unknown origin)

[12] = physchem; details: PAMPA
Description: Permeability of the compound by PAMPA

[13] = molecular target: Cytochrome P450 2C9 (Homo sapiens, UniProt P11712)
Sequence of Cytochrome P450 2C9 (P11712 whole entry): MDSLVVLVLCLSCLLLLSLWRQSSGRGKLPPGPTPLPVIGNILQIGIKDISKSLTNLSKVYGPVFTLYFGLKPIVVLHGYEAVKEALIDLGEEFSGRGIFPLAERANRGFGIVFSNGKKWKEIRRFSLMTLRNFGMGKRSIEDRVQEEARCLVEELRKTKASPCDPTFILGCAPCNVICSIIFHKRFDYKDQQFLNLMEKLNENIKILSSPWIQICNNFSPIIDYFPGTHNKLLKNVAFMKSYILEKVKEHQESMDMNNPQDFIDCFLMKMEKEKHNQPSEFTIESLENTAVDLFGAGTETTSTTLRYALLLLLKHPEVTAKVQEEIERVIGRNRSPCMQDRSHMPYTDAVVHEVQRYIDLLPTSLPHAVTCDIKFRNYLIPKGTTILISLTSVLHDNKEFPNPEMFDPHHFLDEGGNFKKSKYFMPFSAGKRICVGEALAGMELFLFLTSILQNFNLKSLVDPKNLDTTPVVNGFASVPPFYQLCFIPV
Description: Inhibition of CYP2C9 (unknown origin)

[14] = physchem; details: phosphate buffer, pH 6.5
Description: Aqueous solubility of the compound in phosphate buffer at pH 6.5 by LYSA method

[15] = molecular target: T3, Cytochrome P450 11B2, mitochondrial (Mus musculus, UniProt P15539)
T3 sequence (P15539 whole entry): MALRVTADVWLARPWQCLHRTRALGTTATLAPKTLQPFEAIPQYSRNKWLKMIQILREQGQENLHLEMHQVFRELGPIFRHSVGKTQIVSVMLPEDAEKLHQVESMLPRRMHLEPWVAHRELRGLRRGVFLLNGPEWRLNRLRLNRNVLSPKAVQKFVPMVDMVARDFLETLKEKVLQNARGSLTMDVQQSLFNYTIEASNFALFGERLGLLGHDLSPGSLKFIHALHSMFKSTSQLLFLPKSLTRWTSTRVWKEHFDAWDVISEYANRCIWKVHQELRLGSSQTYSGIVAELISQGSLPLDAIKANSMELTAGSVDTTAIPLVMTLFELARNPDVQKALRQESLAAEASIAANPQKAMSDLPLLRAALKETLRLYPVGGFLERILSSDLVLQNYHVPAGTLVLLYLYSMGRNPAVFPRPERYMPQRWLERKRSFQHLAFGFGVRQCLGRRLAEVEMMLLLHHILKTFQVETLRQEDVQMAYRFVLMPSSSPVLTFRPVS
Description: Inhibition of mouse CYP11B2 expressed in renal leiomyoblastoma cells

| SMILES | CL [1] [µg/min] | IC50 [2] [nM] | CL [3] [µg/min] | CL [4] [µg/min] | inhibition at 0.5 µM [5] [%] | Activity [6] | Activity [7] | Activity [8] | IC50 [9] [nM] | logD [10] | IC50 [11] [nM] | Papp [12] [×10⁻⁶ cm/s] | IC50 [13] [nM] | solubility [14] [µg/mL] | IC50 [15] [nM] |
| --- | --- | --- | --- | --- | --- | --- | --- | --- | --- | --- | --- | --- | --- | --- | --- |
| N#Cc1ccc(-c2cccnc2)cc1 | < 10 | 40 | 53 | < 10 |  |  |  |  |  |  |  |  |  |  |  |
| O=C1CCc2cc(-c3cncc4ccccc34)ccc2N1 |  |  |  |  | 65 |  |  |  |  |  |  |  |  |  |  |
| COC(=O)[C@@H]1CC2=CC(=O)CC[C@]2(C)[C@@]23O[C@@H]2C[C@@]2(C)[C@@H](CC[C@@]24CCC(=O)O4)[C@H]13 |  |  |  |  |  | Active | Active | Active |  |  |  |  |  |  |  |
| N#Cc1ccc(-c2cncc3c2CCCC3N)cc1 (racemic) | < 10 | 42 | 12 | < 10 |  |  |  |  |  |  |  |  |  |  |  |
| CC(=O)NC1CCCc2c(-c3ccc(C#N)cc3)cncc21 (racemic) | < 10 | 21 | < 10 | < 10 |  |  |  |  | > 50000 | 1.8 | > 50000 | > 4.4 | > 50000 | 415 (≈ 1420 µM) |  |
| CC(C)C(=O)NC1CCCc2c(-c3ccc(C#N)cc3)cncc21 (racemic) | < 10 |  | < 10 | < 10 |  |  |  |  | > 50000 | 2.6 | > 50000 | > 4.4 | > 50000 | 90 (≈ 282 µM) |  |
| CCC(=O)NC1CCCc2c(-c3ccc(F)c(F)c3)cncc21 (racemic) | 85 | 47 | 17 | < 10 |  |  |  |  |  | 3 |  | > 4 |  | 310 (≈ 980 µM) |  |
| CCC(=O)NC1CCCc2c(-c3cc(F)c(F)cc3F)cncc21 (racemic) | 78 | 27 | < 10 | < 10 |  |  |  |  |  | 3.1 |  | > 4 |  | 239 (≈ 715 µM) |  |
| CCC(=O)NC1CCCc2c(-c3ccc(Cl)cc3F)cncc21 (racemic) | 46 | 28 | 21 | < 10 |  |  |  |  |  | 3.6 |  | > 4 |  | 129 (≈ 388 µM) |  |
| CCC(=O)NC1CCCc2c(-c3ccc(Cl)c(F)c3)cncc21 (racemic) | 31 | 14 | 36 | < 10 |  |  |  |  |  | 3.6 |  | > 4 |  | 99 (≈ 297 µM) |  |
| N#Cc1ccc([C@H]2CCc3cncn32)c(F)c1 [OSILODROSTAT] |  |  |  |  |  |  |  |  |  |  |  |  |  |  | 210 |
